Experimental data as given in PMC3377386 (Pharmaceutical Research, 2011).
Structures can show the parent of a compound that is named as a salt. Where two headings read alike, the source gives them in different places.

What was measured:
[1] = hairless, guinea pig, in vivo
[2] = for Css: one 50-MN array
[3] = I.V. dose of 3 mg/kg; cited from earlier work
[4] = in seven days; a similarly done study (reference not given); cited from earlier work
[5] = MN + Solaraze® + 16% NTX·HCl, n=4

## O=C1CC[C@@]2(O)[C@H]3Cc4ccc(O)c5c4[C@@]2(CCN3CC2CC2)[C@H]1O5 [NTX·HCl, naltrexone HCl]
[1]
  total delivery of naltrexone: 2.65 mg
[2]; 2.65 mg of 80 mg NTX applied to the MN-treated area
  delivered fraction of the dose: less than 5%
[2]; MN + 16% NTX·HCl (control, no Solaraze®), n=4
  Css: 3.4 ± 1.3 ng/mL
[2]; MN + 16% NTX·HCl (no Solaraze®), n=4
  Tlag: 1.8 ± 1.5 h
[2]; MN + Solaraze® + 16% NTX·HCl gel, n=4
  duration of increased plasma levels (Css): seven
[2]; [5]
  Tlag: 21.5 ± 12.6 h
  Css: 7.0 ± 1.5 ng/mL
[2]; control: one-time MN + 0.5 g 16% NTX·HCl, 6.7 cm^2, no Solaraze®
  time at which NTX·HCl levels returned to baseline: ≤ 60 h
[2]; from Css of 7.0 ng/ml, 6.7 cm^2 patch
  flux corresponding to the steady-state concentration: approximately 16.14 nmol/cm^2/h
[3]
  systemic dose AUC: 546 ng/mL/h
[4]
  fraction of the total drug applied delivered through the skin: less than 5%
